Measured values published in patent US20110288052A1, “NOVEL COMPOUNDS, PHARMACEUTICAL COMPOSITIONS CONTAINING SAME, AND METHODS OF USE FOR SAME” (priority 2008, published 2011).
≈ marks a conversion by molar mass, not a printed value. Where two headings read alike, the source gives them in different places.

Legend:
[1] = tested on: MCF-7 human breast cancer cells (fatty acid synthesis pathway activity); experiment: [14C]acetate incorporation into total lipids; type: cell-based; conditions: MCF7, [14C]acetate incorporation into lipids
Protocol: Measurement of [^14C]acetate Incorporation into Total Lipids and Determination of IC50 of Compounds. This assay measures the incorporation of [^14C]acetate into total lipids and is a measure of fatty acid synthesis pathway activity in vitro. It is utilized to measure inhibition of fatty acid synthesis in vitro.
MCF-7 human breast cancer cells cultured as above, are plated at 5×10^4 cells per well in 24-well plates. Following overnight incubation, the compounds to be tested, solubilized in DMSO, are added at 5, 10, and 20 μg/ml in triplicate, with lower concentrations tested if necessary. DMSO is added to triplicate wells for a vehicle control. C75 is run at 5 and 10 μg/ml in triplicate as positive controls. After 4 hours of incubation, 0.25 μCi of [^14C]acetate (10 μl volume) is added to each well.
After 2 hours of additional incubation, medium is aspirated from the wells and 800 μl of chloroform:methanol (2:1) and 700 μl of 4 mM MgCl2 is added to each well. Contents of each well are transferred to 1.5 Eppendorf tubes, and spun at full-speed for 2 minutes in a high-speed Eppendorf Microcentrifuge 5415D. After removal of the aqueous (upper) layer, an additional 700 μl of chloroform:methanol (2:1) and 500 μl of 4 mM MgCl2 are added to each tube and then centrifuged for 1 minutes as above. The aqueous layer is removed with a Pasteur pipette and discarded. An additional 400 μl of chloroform:methanol (2:1) and 200 μl of 4 mM MgCl2 are added to each tube, then centrifuged and aqueous layer is discarded. The lower (organic) phase is transferred into a scintillation vial and dried at 40° C. under N2 gas. Once dried, 3 ml of scintillant (APB #NBC5104) is added and vials are counted for ^14C. The Beckman Scintillation counter calculates the average cpm values for triplicates.
The IC50 for the compounds is defined as the concentration of drug leading to a 50% reduction in [^14C]acetate incorporation into lipids compared to controls. This is determined by plotting the average cpm for each inhibitor concentration tested, performing linear regression and computing the best-fit line, r^2 values, and 95% confidence intervals. The average cpm values are computed by the Beckman scintillation counter (Model LS6500) for each compound concentration. Computation of linear regression, best-fit line, r^2, and 95% confidence intervals are calculated using Prism Version 3.0 (Graph Pad Software).

[2] = tested on: Enterococcus faecalis (ATCC # 29212); experiment: Broth microdilution antimicrobial assay, E. faecalis; type: cell-based; conditions: for MIC: Enterococcus faecalis, ATCC29212
Protocol: (§1) Antimicrobial Properties A broth microdilution assay is used to assess the antimicrobial activity of the compounds. Compounds are tested at twofold serial dilutions, and the concentration that inhibits visible growth (OD600 at 10% of control) is defined as the MIC. Microorganisms tested include Staphylococcus aureus (ATCC # 29213), Enterococcus faecalis (ATCC # 29212), Pseudomonas aerpginosa (ATCC # 27853), and Escherichia coli (ATCC # 25922). The assay is performed in two growth media, Mueller Hinton Broth and Trypticase Soy Broth.
(§2) A blood (Tsoy/5% sheep blood) agar plate is inoculated from frozen stocks maintained in T soy broth containing 10% glycerol and incubated overnight at 37° C. Colonies are suspended in sterile broth so that the turbidity matches the turbidity of a 0.5 McFarland standard. The inoculum is diluted 1:10 in sterile broth (Mueller Hinton or Trypticase soy) and 195 μl is dispensed per well of a 96-well plate. The compounds to be tested, dissolved in DMSO, are added to the wells in 5 μl volume at the following concentrations: 25, 12.5, 6.25, 3.125, 1.56 and 0.78 μg/ml in duplicate. Additional concentrations are tested if required. 5 μl of DMSO added to duplicate wells are the vehicle control. Serial dilutions of positive control compounds, vancomycin (E. faecalis and S. aureus) and tobramycin (E. coli and P. aerpginosa), are included in each run.
(§3) After 24 hours of incubation at 37° C., plates are read at OD600 on a Molecular Devices SpectraMax Plus Spectrophotometer. Average OD600 values are computed using SOFTmax Pro Software (Molecular Devices) and MIC values are determined by linear regression analysis using Prism version 3.02 (Graph Pad Software, San Diego). The MIC is defined as the concentration of compound required to produce an OD600 reading equivalent to 10% of the vehicle control reading.

[3] = Solubility problem noted during the assays; type: physicochemical; conditions: for solubility: read-out: Sol Prob (solubility problem at concentration)
Weight loss screen = type: in vivo, Balb/C mice; conditions: 60 mg/kg intraperitoneally
Protocol: Weight Loss Screen Balb/C mice (Jackson Labs) are utilized for the initial weight loss screening. Animals are housed in temperature and 12 hour day/night cycle rooms and fed mouse chow and water ad lib. Three mice are utilized for each compound tested with vehicle controls in triplicate per experiment. For the experiments, mice are housed separately for each compound tested three mice to a cage. Compounds are diluted in DMSO at 10 mg/ml and mice are injected intraperitoneally with 60 mg/kg in approximately 100 μl of DMSO or with vehicle alone. Mice are observed and weighed daily; average weights and standard errors are computed with Excel (Microsoft). The experiment continues until treated animals reach their pretreatment weights.

[4] = tested on: Staphylococcus aureus (ATCC # 29213); experiment: Broth microdilution antimicrobial assay, S. aureus; type: cell-based
Protocol: as §1, §2, §3

[5] = ATCC29213, Mueller Hinton Broth, read-out: SA/MH (MIC)
[6] = ATCC29213, Trypticase Soy Broth, read-out: SA/Tsoy (MIC)

IC50 [1] | EF/MH (MIC) ([2]; Mueller Hinton Broth) | EF/Tsoy (MIC) ([2]; Trypticase Soy Broth) | solubility [3] | Structure (SMILES) | further results
23 µg/mL (≈ 56.7 µM) | Neg | Neg | – | CCCCCCCCC1(C)SC(=O)C=C1OCC(=O)Nc1ccc(OC)cc1 (stereo not shown) | –
> 80 µg/mL | Neg | Neg | – | CCCCCCCCOc1ccc(NC(=O)COC2=CC(=O)SC2(C)CCCCCCCC)cc1 (stereo not shown) | –
> 80 µg/mL | – | – | 80 µg/mL (≈ 180 µM) | CCCCCCCC[C@]1(C)SC(=O)C=C1OCC(=O)Nc1ccccc1C(F)(F)F | –
– | – | – | 40 µg/mL (≈ 90 µM) | CCCCCCCCC1(C)SC(=O)C=C1OCC(=O)Nc1ccc(Cl)cc1Cl (stereo not shown) | –
19.2 ± 2 µg/mL (≈ 46.8 µM) | Neg | – | – | CCCCCCCCC1(C)SC(=O)C=C1OCC(=O)Nc1ccc(Cl)cc1 (stereo not shown) | Weight Loss (Weight loss screen; day 1): 60 mg/kg: 0.2% (day 1); MIC [4, 5]: 6 µg/mL (≈ 14.6 µM); MIC [4, 6]: 3 µg/mL (≈ 7.32 µM); MIC ([2]; Trypticase Soy Broth, read-out: EF/Tsoy (MIC)): 44 µg/mL (≈ 107 µM); Solubility remark on FAS IC50 ([3]; FAS assay): Limited by Solubility
< 2.5 µg/mL | Neg | Neg | – | CCCCCCCCC1(C)SC(=O)C=C1OCC(=O)Nc1ccc(C(F)(F)F)cc1 (stereo not shown) | –
> 80 µg/mL | – | – | – | CCCCCCCC[C@]1(C)SC(=O)C=C1OCC(=O)Nc1ccccc1OC(F)(F)F | –
12.3 µg/mL (≈ 27.7 µM) | – | – | 80 µg/mL (≈ 180 µM) | CCCCCCCCC1(C)SC(=O)C=C1OCC(=O)Nc1cccc(C(F)(F)F)c1 (stereo not shown) | –
> 80 µg/mL | – | – | 40 µg/mL (≈ 94.9 µM) | CCCCCCCCC1(C)SC(=O)C=C1OCC(=O)Nc1ccc(SC)cc1 (stereo not shown) | –
– | Neg | Neg | – | CCCCCCCCC1(C)SC(=O)C=C1OCC(=O)Nc1ccc2c(c1)OCO2 (stereo not shown) | –
> 80 µg/mL | – | – | 40 µg/mL (≈ 94.9 µM) | CCCCCCCCC1(C)SC(=O)C=C1OCC(=O)Nc1ccccc1SC (stereo not shown) | –
17.1 µg/mL (≈ 37.2 µM) | – | – | 40 µg/mL (≈ 87 µM) | CCCCCCCCC1(C)SC(=O)C=C1OCC(=O)Nc1cccc(OC(F)(F)F)c1 (stereo not shown) | –
> 80 µg/mL | Neg | Neg | – | CCCCCCCCC1(C)SC(=O)C=C1OCC(=O)Nc1ccc(Oc2ccc(Cl)cc2)cc1 (stereo not shown) | Weight Loss (Weight loss screen; day 4): 60 mg/kg: 3.1% (day 4)
– | Neg | Neg | – | CCCCCCCCC1(C)SC(=O)C=C1OCC(=O)Nc1ccccc1N1CCCCC1 (stereo not shown) | –
8.2 µg/mL (≈ 17.8 µM) | Neg | Neg | – | CCCCCCCCC1(C)SC(=O)C=C1OCC(=O)Nc1ccc(OC(F)(F)F)cc1 (stereo not shown) | Weight Loss (Weight loss screen; day 1): 60 mg/kg: 2.2% (day 1)
– | – | Neg | 80 µg/mL (≈ 203 µM) | CCCCCCCCC1(C)OC(=O)C=C1OCC(=O)Nc1ccc(Cl)cc1 (stereo not shown) | MIC [4, 5]: 6 µg/mL (≈ 15.2 µM); MIC [4, 6]: 3 µg/mL (≈ 7.62 µM); MIC ([2]; Mueller Hinton Broth, read-out: EF/MH (MIC)): 70 µg/mL (≈ 178 µM)
80.2 µg/mL (≈ 175 µM) | Neg | Neg | – | CCCCCCCCC1(C)SC(=O)C=C1OCC(=O)Nc1ccc(-c2cccs2)cc1 (stereo not shown) | –
– | Neg | Neg | – | CCCCCCCCC1(C)SC(=O)C=C1OCC(=O)Nc1ccccc1 (stereo not shown) | –
– | Neg | Neg | – | CCCCCCCCC1(C)SC(=O)C=C1OCC(=O)Nc1ccc(Cl)cc1C(F)(F)F (stereo not shown) | –
